Test systems include OVCAR-3 ovarian; IGROV1 ovarian; HOP-62 NSCLC; SF-295 CNS; OVCAR-4 ovarian; HOP-92 NSCLC; SK-MEL-2 melanoma; KM12 colon; HCT-116 colon.
Experiment in all cases: inhibition of tumour cell growth, NCI panel, 48 h

Molecules are shown by their SMILES.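 96-well plates; 48 h exposure; 5 concentrations. Endpoints by linear interpolation between flanking doses. Not reached: highest tested concentration assigned. The concentration for 50% growth inhibition is given as GI50. At the TGI there is no net growth.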 A value given as a limit tells only on which side of the number the result lay.

As to `O=C1c2ccccc2C(=O)C12CCc1ccccc12`, the TGI in the experiment with OVCAR-3 ovarian, with IGROV1 ovarian, with HOP-62 NSCLC, in the experiment with SF-295 CNS, in the experiment on OVCAR-4 ovarian and in the experiment with HOP-92 NSCLC was above 100 µM each time.

Turning to `COc1ccc(/C=C2\CCC(CCN(C)C)(C3=CCCC3)C2=O)cc1` (stereo not drawn), the TGI with SK-MEL-2 melanoma was 32.9 µM; in the experiment with OVCAR-3 ovarian it was 49.7 µM; with IGROV1 ovarian it was 33.2 µM; in the experiment with KM12 colon, 32.4 µM; in the experiment on HOP-62 NSCLC it was 36 µM; in the experiment with SF-295 CNS, 33.4 µM. The values for the TGI in the experiment on HCT-116 colon, with OVCAR-4 ovarian and with HOP-92 NSCLC were 29.1 µM, 44.5 µM and 54.1 µM, respectively.

Regarding `CC1(C)COC2C(N(Cc3ccccc3)Cc3ccccc3)C(=O)N21` (stereo not drawn), the TGI is above 100 µM in the experiment with OVCAR-3 ovarian; above 100 µM with IGROV1 ovarian; above 100 µM in the experiment on KM12 colon; above 100 µM in the experiment on HOP-62 NSCLC; 88.8 µM in the experiment on SF-295 CNS; above 100 µM with HCT-116 colon. In addition, the TGI with OVCAR-4 ovarian is above 100 µM; in the experiment with HOP-92 NSCLC it was 80.5 µM.

`CC(C)(C)NCC(O)COc1c(Br)c(Br)c(Br)c2c1OC(C)(C)C2` (stereo not drawn): the GI50 in the experiment with SK-MEL-2 melanoma was 1.6 µM; in the experiment with OVCAR-3 ovarian it was 1.54 µM; with IGROV1 ovarian it was 1.77 µM; in the experiment on KM12 colon it was 1.82 µM; in the experiment on HOP-62 NSCLC it was 1.89 µM; with SF-295 CNS, 2.26 µM. Also, the GI50 in the experiment with HOP-92 NSCLC is 1.52 µM. In addition, the TGI in the experiment on SK-MEL-2 melanoma was 3.23 µM; in the experiment on OVCAR-3 ovarian it was 3.11 µM; in the experiment on IGROV1 ovarian, 3.36 µM; with KM12 colon it was 3.4 µM; in the experiment with HOP-62 NSCLC, 3.7 µM; in the experiment with SF-295 CNS it was 3.95 µM. This compound also came in with a TGI in the experiment with HOP-92 NSCLC of 3.17 µM.

For the compound `COC(=O)C(=O)C(CC(=O)Nc1ccc(C)cc1)C(=O)OC` (stereo not drawn), the TGI in the experiment on SK-MEL-2 melanoma, in the experiment with OVCAR-3 ovarian, with IGROV1 ovarian, in the experiment on KM12 colon, in the experiment on HOP-62 NSCLC and with SF-295 CNS was above 100 µM in each case. Further, the TGI with HCT-116 colon, in the experiment with OVCAR-4 ovarian and in the experiment on HOP-92 NSCLC was above 100 µM in each case.

On to `COc1cccc(-c2cc(=O)c3cc4c(cc3[nH]2)OCO4)c1`, for which the TGI is 3.77 µM with SK-MEL-2 melanoma; 0.452 µM in the experiment with OVCAR-3 ovarian; 6.12 µM in the experiment on IGROV1 ovarian; 21.9 µM in the experiment with HOP-62 NSCLC; 0.828 µM in the experiment on SF-295 CNS; above 100 µM with HCT-116 colon. In the experiment with HOP-92 NSCLC, the TGI is above 100 µM.

For the compound `O=C1CCC2(c3ccccc3)Nc3ccccc3N12` (stereo not drawn), the TGI in the experiment with SK-MEL-2 melanoma, in the experiment on OVCAR-3 ovarian, with IGROV1 ovarian, in the experiment with KM12 colon, in the experiment on HOP-62 NSCLC and with SF-295 CNS was above 100 µM in each case. In addition, the TGI with OVCAR-4 ovarian and with HOP-92 NSCLC was above 100 µM throughout.

In the case of `COC(=O)C(C(=O)C(=O)Nc1ccc(C)cc1C)c1csc(-n2nc(-c3ccccc3)cc2-c2ccccc2)n1` (stereo not drawn), the TGI in the experiment with OVCAR-3 ovarian, with IGROV1 ovarian, with KM12 colon, with HOP-62 NSCLC, in the experiment with HCT-116 colon and in the experiment on OVCAR-4 ovarian was above 100 µM in each case. This compound also returned a TGI with HOP-92 NSCLC above 100 µM.

Regarding `CCCC(=O)N[C@H]1CCc2cc(OC)c(OC)c(OC)c2-c2ccc(SC)c(=O)cc21`, the TGI was below 0.0423 µM in the experiment on OVCAR-3 ovarian; above 100 µM in the experiment with IGROV1 ovarian; below 0.01 µM with KM12 colon; above 91.2 µM in the experiment with HOP-62 NSCLC; below 0.01 µM in the experiment with SF-295 CNS; 0.176 µM with HCT-116 colon. For the same compound, the TGI in the experiment with OVCAR-4 ovarian was above 100 µM; in the experiment with HOP-92 NSCLC it was 2.51 µM.

As for `C=C1C(=O)C23[C@H](O)C1CC[C@H]2[C@]12COC3(O)[C@@H](O)[C@@H]1C(C)(C)CC[C@@H]2O`, the TGI turned out to be 11 µM with SK-MEL-2 melanoma; 28.2 µM in the experiment with OVCAR-3 ovarian; 38.7 µM in the experiment with IGROV1 ovarian; 31.4 µM with KM12 colon; 36.1 µM in the experiment with HOP-62 NSCLC; 32.2 µM in the experiment with SF-295 CNS. In addition, the TGI in the experiment with HCT-116 colon amounted to 19.3 µM; with OVCAR-4 ovarian it was 33.5 µM; in the experiment on HOP-92 NSCLC it was 10.1 µM.

Regarding `C#CCN(N=O)C(=O)ON1C(=O)CCC1=O`, the TGI in the experiment with SK-MEL-2 melanoma, with OVCAR-3 ovarian, in the experiment on IGROV1 ovarian, in the experiment with KM12 colon, in the experiment with HOP-62 NSCLC and with SF-295 CNS was above 100 µM throughout. Further, the TGI in the experiment with HCT-116 colon, in the experiment on OVCAR-4 ovarian and with HOP-92 NSCLC was above 100 µM throughout.

Regarding `CC1CC2(S(=O)(=O)c3ccccc3)ON1CC2S(=O)(=O)c1ccccc1` (stereo not drawn), the TGI with SK-MEL-2 melanoma, in the experiment with OVCAR-3 ovarian, in the experiment on IGROV1 ovarian, in the experiment with KM12 colon, with HOP-62 NSCLC and with SF-295 CNS was above 100 µM in each case. The TGI in the experiment with HCT-116 colon and with OVCAR-4 ovarian was above 100 µM in each case.

Take `CN(C)C(=S)/N=c1\ssc(=S)n1C`: the TGI in the experiment on SK-MEL-2 melanoma, with IGROV1 ovarian, with KM12 colon, with HOP-62 NSCLC, in the experiment with SF-295 CNS and with HCT-116 colon was above 100 µM throughout. The TGI in the experiment with OVCAR-4 ovarian and in the experiment with HOP-92 NSCLC was above 100 µM in each case.

As to `ClCc1cccc(Cn2cnc3c(Cl)nc(Cl)nc32)c1`, the GI50 with SK-MEL-2 melanoma is 1.98 µM; in the experiment with OVCAR-3 ovarian, 1.59 µM; in the experiment with IGROV1 ovarian it was 2.27 µM; in the experiment with KM12 colon it was 1.82 µM; with HOP-62 NSCLC it was 2.29 µM; with SF-295 CNS it was 4.37 µM. The GI50 in the experiment on HCT-116 colon is 1.64 µM; with OVCAR-4 ovarian, 5.51 µM; with HOP-92 NSCLC, 1.84 µM. For the same compound, the TGI was determined as 4.44 µM with SK-MEL-2 melanoma; 3.21 µM in the experiment on OVCAR-3 ovarian; 5.18 µM in the experiment with IGROV1 ovarian; 3.79 µM in the experiment on KM12 colon; 4.38 µM in the experiment on HOP-62 NSCLC; 17.1 µM in the experiment on SF-295 CNS. Also, the values for the TGI in the experiment with HCT-116 colon, with OVCAR-4 ovarian and with HOP-92 NSCLC were 3.12 µM, 20.1 µM and 3.63 µM, respectively.
